# Results taken from PubChem BioAssay (NCI).
#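 Five compound concentrations were applied to cells in 96-well plates for 48 hours; endpoints were derived by simple linear interpolation of the resulting dose-response curve. TGI marks complete inhibition of growth.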
# How the values were obtained:
# Assay in all cases: NCI anticancer screen, dose series, 48 h
# [1] = system: DMS 114 small cell lung
# [2] = system: ACHN renal
# [3] = system: XF 498 CNS
# [4] = system: OVCAR-5 ovarian
# [5] = system: MALME-3M melanoma
# [6] = system: IGROV1 ovarian
# [7] = system: OVCAR-3 ovarian
# [8] = system: 786-0 renal
# [9] = system: EKVX NSCLC
# [10] = system: RXF 393 renal
# [11] = system: UACC-257 melanoma
# [12] = system: SF-539 CNS
# [13] = system: UO-31 renal
# [14] = system: OVCAR-4 ovarian
# [15] = system: NCI-H226 lung
# [16] = system: SF-295 CNS
# [17] = system: NCI-H460 lung
# [18] = system: LOX IMVI melanoma
# [19] = system: MOLT-4 leukemia
# [20] = system: RPMI-8226 leukemia
# [21] = system: SN12C renal
# [22] = system: HCC-2998 colon
# [23] = system: SK-MEL-28 melanoma
# [24] = system: HCT-116 colon
# [25] = system: OVCAR-8 ovarian
# [26] = system: SF-268 CNS
# [27] = system: A498 renal
# [28] = system: SR leukemia
# [29] = system: K-562 leukemia
# [30] = system: KM20L2 colon
# [31] = system: TK-10 renal
# [32] = system: HT29 colon
# [33] = system: HL-60(TB) leukemia
# [34] = system: NCI-H23 lung
# [35] = system: NCI-H522 lung
# [36] = system: HOP-18 NSCLC
# [37] = system: M14 melanoma
# [38] = system: A549 NSCLC
# [39] = system: LXFL 529 NSCLC
# [40] = system: SK-MEL-5 melanoma
# [41] = system: SNB-19 CNS
# [42] = system: CCRF-CEM leukemia
# [43] = system: HOP-92 NSCLC
# [44] = system: COLO 205 colon
# [45] = system: SK-OV-3 ovarian
# [46] = system: HOP-62 NSCLC
# [47] = system: U251 CNS
# [48] = system: SNB-75 CNS
# [49] = system: KM12 colon
# [50] = system: CAKI-1 renal
# [51] = system: UACC-62 melanoma
# [52] = system: SW-620 colon
# [53] = system: DLD-1 colon
# [54] = system: SK-MEL-2 melanoma
# [55] = system: M19-MEL melanoma
# [56] = system: HCT-15 colon
# [57] = system: SNB-78 CNS
structure (smiles),measurement,setting,value
CCC1(O)C(=O)OCc2c1cc1n(c2=O)Cc2cc3cc(OC)c(OC)cc3nc2-1 (centres undefined),TGI,[1],> 100 µM
same,TGI,[2],37.3 µM
same,TGI,[3],> 100 µM
same,TGI,[4],> 100 µM
same,TGI,[5],> 100 µM
same,TGI,[6],67.4 µM
same,TGI,[7],> 100 µM
same,TGI,[8],54.2 µM
same,TGI,[9],> 100 µM
same,TGI,[10],71.8 µM
same,TGI,[11],> 100 µM
same,TGI,[12],35.2 µM
same,TGI,[13],> 100 µM
same,TGI,[14],> 100 µM
same,TGI,[15],88.6 µM
same,TGI,[16],> 100 µM
same,TGI,[17],28.5 µM
same,TGI,[18],> 100 µM
same,TGI,[19],> 100 µM
same,TGI,[20],> 100 µM
same,TGI,[21],87.4 µM
same,TGI,[22],> 100 µM
same,TGI,[23],> 100 µM
same,TGI,[24],> 100 µM
same,TGI,[25],> 100 µM
same,TGI,[26],> 100 µM
same,TGI,[27],> 100 µM
same,TGI,[28],7.68 µM
same,TGI,[29],> 100 µM
same,TGI,[30],> 100 µM
same,TGI,[31],> 100 µM
same,TGI,[32],> 100 µM
same,TGI,[33],> 100 µM
same,TGI,[34],> 100 µM
same,TGI,[35],> 100 µM
same,TGI,[36],> 100 µM
same,TGI,[37],> 100 µM
same,TGI,[38],> 100 µM
same,TGI,[39],> 100 µM
same,TGI,[40],> 100 µM
same,TGI,[41],85.2 µM
same,TGI,[42],> 100 µM
same,TGI,[43],> 100 µM
same,TGI,[44],> 100 µM
same,TGI,[45],89 µM
same,TGI,[46],8.38 µM
same,TGI,[47],35 µM
same,TGI,[48],41 µM
same,TGI,[49],> 100 µM
COc1ccc(Cc2nccc3cc(OC)c(OC)cc23)cc1,TGI,[1],> 100 µM
same,TGI,[2],> 100 µM
same,TGI,[3],83.6 µM
same,TGI,[4],> 100 µM
same,TGI,[5],> 100 µM
same,TGI,[50],> 100 µM
same,TGI,[6],> 100 µM
same,TGI,[7],> 100 µM
same,TGI,[8],> 100 µM
same,TGI,[9],> 100 µM
same,TGI,[11],62.2 µM
same,TGI,[12],> 100 µM
same,TGI,[13],90.8 µM
same,TGI,[14],> 100 µM
same,TGI,[16],> 100 µM
same,TGI,[51],> 100 µM
same,TGI,[17],> 100 µM
same,TGI,[19],> 100 µM
same,TGI,[20],> 100 µM
same,TGI,[21],> 100 µM
same,TGI,[52],> 100 µM
same,TGI,[53],> 100 µM
same,TGI,[22],> 100 µM
same,TGI,[23],> 100 µM
same,TGI,[24],> 100 µM
same,TGI,[25],> 100 µM
same,TGI,[26],> 100 µM
same,TGI,[27],> 100 µM
same,TGI,[29],> 100 µM
same,TGI,[30],> 100 µM
same,TGI,[54],> 100 µM
same,TGI,[55],> 100 µM
same,TGI,[31],> 100 µM
same,TGI,[56],> 100 µM
same,TGI,[32],> 100 µM
same,TGI,[34],> 100 µM
same,TGI,[35],> 100 µM
same,TGI,[37],> 100 µM
same,TGI,[57],> 100 µM
same,TGI,[38],> 100 µM
same,TGI,[39],> 100 µM
same,TGI,[40],> 100 µM
same,TGI,[41],> 100 µM
same,TGI,[42],> 100 µM
same,TGI,[44],> 100 µM
same,TGI,[45],> 100 µM
same,TGI,[46],> 100 µM
same,TGI,[47],> 100 µM
same,TGI,[48],> 100 µM
same,TGI,[49],> 100 µM
